Experimental data: the supplement of paper PMC11061612

What was measured:
Experiment in all cases: Bliss excess, mean over the matrix (fraction); higher = more synergy
[1] = system: SK-LU-1 (Lung Adenocarcinoma)
How it was run: (§1)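 Cell lines grown in DMEM/F12 or RPMI with 10% FBS were plated in 1536-well plates and held 24 hours at 37°C, 5% CO2 before 72 hours of exposure to two-drug dose matrices, with DMSO typically at 0.2%. CellTiter-Glo 2.0 luminescence gave viability, which was converted to inhibition. Vehicle wells were set to 0 and blank wells to 1. Combination Emax is the second-highest inhibition in the matrix, and Bliss excess is the observed combination effect minus the expected EA + EB − EA·EB, where EA and EB are the single-agent effects.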

[2] = system: COLO-668 (Small Cell Lung Carcinoma)
How it was run: as §1

[3] = system: SNU-387 (Hepatocellular Carcinoma)
How it was run: as §1

[4] = system: G-401 (Other Solid Carcinomas)
How it was run: as §1

[5] = system: CADO-ES1 (Ewing's Sarcoma)
How it was run: as §1

[6] = system: MOG-G-UVW (Low Grade Glioma)
How it was run: as §1

[7] = system: KOPN-8 (B-Lymphoblastic Leukemia)
How it was run: as §1

[8] = system: NCI-H1993 (Lung Adenocarcinoma)
How it was run: as §1

[9] = system: MDA-MB-453 (Breast Carcinoma)
How it was run: as §1

[10] = system: EFO-21 (Ovarian Carcinoma)
How it was run: as §1

[11] = system: NCI-H2122 (Lung Adenocarcinoma)
How it was run: as §1

[12] = system: A4-Fuk (B-Lymphoblastic Leukemia)
How it was run: as §1

[13] = system: LC-1-sq (Squamous Cell Lung Carcinoma)
How it was run: as §1

[14] = system: ALL-SIL (T-Lymphoblastic Leukemia)
How it was run: as §1

[15] = system: NCI-H1355 (Lung Adenocarcinoma)
How it was run: as §1

[16] = system: EW-1 (Ewing's Sarcoma)
How it was run: as §1

[17] = system: SKN (Other Solid Carcinomas)
How it was run: as §1

[18] = system: EJM (Plasma Cell Myeloma)
How it was run: as §1

[19] = system: DU-145 (Prostate Carcinoma)
How it was run: as §1

[20] = system: OACM5-1 (Esophageal Adenocarcinoma)
How it was run: as §1

With Cc1c2c(nn1C)CSCc1cc(n(C)n1)CSc1cc(c3ccccc3c1)OCCCc1c(C(=O)O)n(C)c3c-2c(Cl)ccc13 [AZD5991] + CCN(CCO)CCCOc1ccc2c(Nc3cc(CC(=O)Nc4cccc(F)c4)[nH]n3)ncnc2c1 [AZD2811] (first compound max 1 µM, 7x7, partner max 1 µM) the Bliss excess [1] was -0.0306, the Bliss excess [2] was 0.0172 and the Bliss excess [3] was -0.0333. It also gave a Bliss excess [4] of -0.0061, a Bliss excess [5] of 0.0101 and a Bliss excess [6] of 0.0197. It also gave a Bliss excess [7] of -0.0289, a Bliss excess [8] of -0.0072 and a Bliss excess [9] of 0.125. It also gave a Bliss excess [10] of -0.0065, a Bliss excess [11] of 0.0065 and a Bliss excess [12] of 0.0579. It also gave a Bliss excess [13] of 0.0425, a Bliss excess [14] of -0.0282 and a Bliss excess [15] of -0.0466. The Bliss excess [16] was 0.0979, the Bliss excess [17] was 0.0261 and the Bliss excess [18] was 0.0504. The Bliss excess [19] was -0.0282 and the Bliss excess [20] was 0.0416.

COc1nnc2ccc(N3CCC(c4ccc(OCCN5CCN(C)C(=O)[C@H]5C)cc4)CC3)nn12 [AZD5153] + C=CCn1c(=O)c2cnc(Nc3ccc(N4CCN(C)CC4)cc3)nc2n1-c1cccc(C(C)(C)O)n1 [AZD1775] (first compound max 1 µM, partner max 1 µM) was tested, and the Bliss excess [1] was -0.0461, the Bliss excess [2] was -0.0349 and the Bliss excess [3] was -0.107. For the same molecule, the Bliss excess [4] was -0.0526, the Bliss excess [5] was -0.0483 and the Bliss excess [6] was -0.0518. The Bliss excess [7] was -0.0267, the Bliss excess [8] was -0.0758 and the Bliss excess [9] was -0.0243. It also gave a Bliss excess [10] of -0.0036, a Bliss excess [11] of -0.0432 and a Bliss excess [12] of -0.109. It also gave a Bliss excess [13] of -0.0288, a Bliss excess [14] of -0.0289 and a Bliss excess [15] of 0.0155. For the same molecule, the Bliss excess [16] was -0.0484, the Bliss excess [17] was -0.0027 and the Bliss excess [18] was 0.0229. It also gave a Bliss excess [19] of -0.0286 and a Bliss excess [20] of 0.0128.

Molecule CCN(CCO)CCCOc1ccc2c(Nc3cc(CC(=O)Nc4cccc(F)c4)[nH]n3)ncnc2c1 [AZD2811] + C[C@@H]1COCCN1C2=NC(=NC(=C2)C3(CC3)[S@](=N)(=O)C)C4=C5C=CNC5=NC=C4 [AZD6738] (first compound max 1 µM, 7x7, partner max 10 µM) has a Bliss excess [1] of -0.0586, a Bliss excess [2] of -0.038 and a Bliss excess [3] of -0.0864. The Bliss excess [4] was -0.0518, the Bliss excess [5] was -0.012 and the Bliss excess [6] was -0.0581. For the same molecule, the Bliss excess [7] was 0.032, the Bliss excess [8] was -0.0726 and the Bliss excess [9] was -0.0352. For the same molecule, the Bliss excess [10] was -0.0656, the Bliss excess [11] was -0.0436 and the Bliss excess [12] was -0.008. For the same molecule, the Bliss excess [13] was -0.0239, the Bliss excess [14] was -0.0499 and the Bliss excess [15] was -0.112. The Bliss excess [16] was 0.0268, the Bliss excess [17] was -0.0432 and the Bliss excess [18] was -0.0286. It also gave a Bliss excess [19] of -0.0535 and a Bliss excess [20] of -0.0628.

For CN(C)CCCOc1ccc(-c2ccc3ncc4c(c3c2)n(C2CCOCC2)c(=O)n4C)cn1 [AZD0156] + CCN(CCO)CCCOc1ccc2c(Nc3cc(CC(=O)Nc4cccc(F)c4)[nH]n3)ncnc2c1 [AZD2811] (first compound max 1 µM, 7x7, partner max 1 µM), the Bliss excess [1] was -0.0518, the Bliss excess [2] was -0.0175 and the Bliss excess [3] was -0.0569. It also gave a Bliss excess [4] of -0.0279, a Bliss excess [5] of 0.0131 and a Bliss excess [6] of 0.045. For the same molecule, the Bliss excess [7] was 0.0535, the Bliss excess [8] was -0.0335 and the Bliss excess [9] was -0.0208. It also gave a Bliss excess [10] of -0.0506, a Bliss excess [11] of 0.0471 and a Bliss excess [12] of 0.0911. The Bliss excess [13] was 0.0392, the Bliss excess [14] was -0.0532 and the Bliss excess [15] was -0.0599. It also gave a Bliss excess [16] of 0.0446, a Bliss excess [17] of -0.0358 and a Bliss excess [18] of 0.0008. For the same molecule, the Bliss excess [19] was -0.0263 and the Bliss excess [20] was -0.0366.
